This is an account of results in publication PMC11990524, “Design and Synthesis of Novel 6-(Substituted phenyl)-[1,3]dioxolo[4′,5′:4,5]benzo[1,2-d]thiazole Compounds as Tyrosinase Inhibitors: In Vitro and In Vivo Insights” (Molecules, 2025).

The target of data set [1] is T1, mushroom tyrosinase (Agaricus bisporus, UniProt C7FF04). Description: Kinetic analysis of mushroom tyrosinase (Lineweaver–Burk and Dixon plots). It is filed as biochemical. Set-up: purchased Sigma-Aldrich. The note with it: substrate L-dopa. How it is done: Therefore, the mechanism of inhibition was investigated using mushroom tyrosinase. At various concentrations of L-dopa, the initial dopachrome production rate was investigated at four different concentrations of 5 (0, 20, 40, and 80 μM) and 9 (0, 0.5, 1.0, and 2.0 μM).
The Lineweaver–Burk plot for each compound was re-plotted by plotting the reciprocal of the initial dopachrome production rate vs. the […] to create a Dixon plot for each compound (Figure 3C,D for compounds 5 and 9, respectively). […] The absolute value of the x-coordinate of the merged point represents the inhibition constant (Ki), which indicates the potency of the inhibitor.
Kinetic analysis of mushroom tyrosinase was performed by recording the initial dopachrome formation rate in the presence of compounds 5 and 9. […] The optical density of dopachrome production in each well was recorded at 475 nm at 5 min intervals for 30 min. Compounds were tested at 80, 40, 20, and 0 μM for 5 and at 2, 1.0, 0.5, and 0 μM for 9, respectively. Potting the inverse of the substrate concentration vs. the reciprocal of the initial dopachrome production rate generated Lineweaver–Burk plots.
Target sequence in this assay (C7FF04 1-392): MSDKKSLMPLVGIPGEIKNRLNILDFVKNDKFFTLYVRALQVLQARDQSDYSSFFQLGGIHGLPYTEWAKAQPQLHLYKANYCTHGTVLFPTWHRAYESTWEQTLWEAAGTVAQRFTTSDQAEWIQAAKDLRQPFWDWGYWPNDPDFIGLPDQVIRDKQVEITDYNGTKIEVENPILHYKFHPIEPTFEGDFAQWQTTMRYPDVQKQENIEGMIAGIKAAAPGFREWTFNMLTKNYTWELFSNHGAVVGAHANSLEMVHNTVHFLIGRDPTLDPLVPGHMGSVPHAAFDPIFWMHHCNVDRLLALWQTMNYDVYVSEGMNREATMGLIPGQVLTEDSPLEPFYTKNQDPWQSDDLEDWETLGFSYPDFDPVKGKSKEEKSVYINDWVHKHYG

For data set [2], the target named is T2, B16F10 cellular tyrosinase (Mus musculus, UniProt P11344).
T2 construct: endogenous in cells; host or cells: B16F10 murine cells, stimulated with α-MSH and IBMX
T2 sequence (P11344 19-533): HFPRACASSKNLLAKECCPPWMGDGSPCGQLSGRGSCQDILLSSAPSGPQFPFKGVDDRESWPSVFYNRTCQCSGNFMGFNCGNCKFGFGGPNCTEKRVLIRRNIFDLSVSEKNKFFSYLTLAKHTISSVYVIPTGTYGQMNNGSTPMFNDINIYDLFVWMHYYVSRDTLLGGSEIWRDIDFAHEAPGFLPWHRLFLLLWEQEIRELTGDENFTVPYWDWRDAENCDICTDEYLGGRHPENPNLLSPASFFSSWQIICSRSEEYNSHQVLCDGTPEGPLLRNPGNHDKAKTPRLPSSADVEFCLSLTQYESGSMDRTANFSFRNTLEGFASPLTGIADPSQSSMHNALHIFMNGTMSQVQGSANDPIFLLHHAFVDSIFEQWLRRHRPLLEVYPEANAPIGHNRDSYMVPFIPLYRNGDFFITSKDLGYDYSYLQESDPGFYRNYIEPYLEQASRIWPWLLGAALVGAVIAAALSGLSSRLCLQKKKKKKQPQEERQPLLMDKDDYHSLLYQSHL
The experiment in a line: Cellular tyrosinase activity assay using B16F10 cells. It is filed as cell-based, murine. The note with it: 1, 2, and 5 μM, IBMX 200 μM plus α-MSH 1 μM, 72 h. The protocol: After 72 h of incubation, the B16F10 cellular tyrosinase inhibitory activity was evaluated by measuring the optical density at 475 nm.
To evaluate the effect of compounds 5 and 9 on cellular tyrosinase activity, B16F10 cells (5000 cells/well) were inoculated in a 6-well plate and cultured for 24 h under the same conditions as the cell culture. […] The plate was incubated in a 5% CO2 incubator maintained at 37 °C for 1 h. Each well was treated with stimulators (1 μM α-MSH [Alomone Labs^TM, Jerusalem, Israel] and 200 μM IBMX [Thermo Fisher, Rockford, IL, USA]) and incubated in a CO2 incubator for 72 h. The cells were rinsed twice with PBS (pH 7.4) and treated with 100 μL lysis buffer solution consisting of Triton X-100 (1%; 5 μL), phosphate buffer (50 mM; pH 6.5; 90 μL), and phenylmethanesulfonyl fluoride (2 mM; 5 μL). The lysates were placed for 30 min at −80 °C. After centrifuging at 10,000 g and 4 °C for 10 min, an aliquot (80 μL) of the supernatants was transferred to each well of a 96-well plate, and 20 μL of L-dopa solution (10 mM) was added to each well. The optical density at 475 nm was recorded every min for 10 min to determine cellular tyrosinase activity.

The next data set has as its system HaCaT cells. The experiment in a line: Cytotoxicity assay on HaCaT cells (EZ-Cytox). It is filed as cell-based, human. The note with it: 1, 2, 5, 10, and 20 μM, 24 h. The protocol:
In addition to melanocytes, keratinocytes are the primary cells present in the epidermis. […] Each compound was treated at concentrations of 0, 1, 2, 5, 10, and 20 μM for 24 h, and cell viability was measured using the EZ-Cytox solution.
The effect of compounds 5 and 9 on cell viability of HaCaT and B16F10 cells was assessed using an EZ-Cytox solution (EZ-1000®, DoGenBio, Seoul, Republic of Korea). HaCaT (5 × 10^3 cells/well) and B16F10 (1 × 10^3 cells/well) cells were seeded in a 96-well plate, respectively, and cultured for 24 h under the same conditions as the cell culture. Each well was treated with 5 and 9 at 0, 1, 2, and 5 μM for B16F10 cells and 0, 1, 2, 5, 10, and 20 μM for HaCaT cells. The plates were incubated for 72 h for B16F10 cells and 24 h for HaCaT cells under a CO2 incubator. Each well was treated with the EZ-Cytox solution (10 μL), and the plate was left for 2 h under a CO2 incubator. Well optical density was measured at 450 nm to determine cytotoxicity.

The target of another data set is T3, B16F10 cell tyrosinase (Mus musculus, UniProt P11344).
T3 construct: endogenous in cells; host or cells: B16F10 murine cells, stimulated with α-MSH and IBMX
T3 sequence (P11344 19-533): T2 sequence (P11344 19-533)
The experiment in a line: In situ cellular tyrosinase activity assay using B16F10 cells. It is filed as cell-based, murine. The note with it: 1, 2, and 5 μM, IBMX plus α-MSH, 72 h, L-dopa 2 h. How it is done:
After 72 h of incubation, the cells were treated with an excessive amount of L-dopa for 2 h, and then the melanin-stained cells were photographed, and the pigmented areas of the cells were determined using an ATTO CS Analyzer (ATTO, Tokyo, Japan).
B16F10 (3 × 10^3 cells/well) cells in a 24-well plate were incubated for 24 h in a 5% CO2 incubator maintained at 37 °C. […] Stimulators (α-MSH and IBMX; 1 μM and 200 μM, respectively) were exposed to cells 1 h after treatment with the test sample, and the cells were incubated for 72 h in a 5% CO2 incubator. The cells were fixed for 40 min using paraformaldehyde solution (4%) (Sigma-Aldrich, St. Louis, MO, USA), washed with PBS (pH 7.4), and permeabilized for 2 min using Triton X-100 (0.1%). After washing twice with PBS, each well was exposed to L-dopa solution (500 μL; 2 mM). After incubation for 2 h, images of the cells stained with excess melanin were obtained using a camera connected to a microscope (Motic, Hong Kong).

Another data set has as its system B16F10 cells. Description: Cellular melanin content assay using B16F10 cells. It is filed as cell-based, murine. How it is done: After 72 h of incubation, the melanin content was evaluated by measuring the optical density at 405 nm.
The plate was incubated in a CO2 incubator for 1 h. Each well was treated with stimulators (α-MSH and IBMX; 1 μM and 200 μM, respectively) and incubated in a CO2 incubator for 72 h. The incubated cells were rinsed twice with PBS (pH 7.4). 1N–NaOH solution (100 μL) was added to each well and warmed at 60 °C for 1 h. The lysates were transferred to each well of a 96-well plate. The optical density was measured at 405 nm.

For data set [3], the target named is T1, mushroom tyrosinase. Description: Mushroom tyrosinase inhibitory activity assay (L-dopa or L-tyrosine as substrate). The note with it: 50 μM, read-out: Inhibition (%, Mean ± SEM) at 50 μM (converted). It is filed as biochemical. How it is done: In the inhibition experiments, L-dopa and L-tyrosine were used as enzyme substrates.
The plate was incubated at 37 °C for 30 min, and absorbance of dopachrome formation was recorded spectrophotometrically at 475 nm using a VersaMax® Elisa (VE) microplate reader (Molecular Devices, San Jose, CA, USA) to determine tyrosinase inhibition activity. A VE microplate reader was used in all subsequent experiments to measure optical density. All experiments were carried out independently three times.
Target sequence in this assay (C7FF04 2-392): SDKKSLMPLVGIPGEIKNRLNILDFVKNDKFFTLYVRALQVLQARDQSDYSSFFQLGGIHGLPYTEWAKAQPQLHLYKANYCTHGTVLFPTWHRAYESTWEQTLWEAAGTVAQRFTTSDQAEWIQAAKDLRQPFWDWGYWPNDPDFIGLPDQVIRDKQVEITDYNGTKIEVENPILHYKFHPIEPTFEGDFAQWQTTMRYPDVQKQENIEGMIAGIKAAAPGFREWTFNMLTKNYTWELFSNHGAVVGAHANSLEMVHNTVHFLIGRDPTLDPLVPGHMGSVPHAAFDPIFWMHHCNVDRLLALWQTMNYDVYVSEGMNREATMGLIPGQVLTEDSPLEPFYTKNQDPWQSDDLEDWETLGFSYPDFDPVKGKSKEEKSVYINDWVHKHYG

Another data set deals with zebrafish embryos. The experiment in a line: In vivo pigmentation assay using zebrafish embryos. Set-up: species or system Danio rerio. The note with it: kojic acid 20 mM; treated at 24 hpf, measured at 72 hpf. The protocol: To identify whether the synthesized compounds could exert anti-melanogenic effects in vivo, in vivo experiments were performed using zebrafish embryos. Freely obtained zebrafish embryos were transferred to a culture dish containing an E3-MB solution and incubated at 28 °C until use. For a preliminary experiment, zebrafish embryos were dechorionated using Pronase® (Sigma-Aldrich) at 20 h post fertilization (hpf), and each compound at 0.1 mM was exposed to five zebrafish embryos in E3 solution at 24 hpf. The depigmentation abilities were compared at 72 hpf to select the compounds used in the main experiments. From the preliminary experiments (n = 1), five compounds (2, 5, and 11–13) were selected for the main depigmentation experiments (n = 3). As in the preliminary experiment, the obtained zebrafish embryos were dechorionated at 20 hpf, and each selected compound (0.1 mM) was administered to six zebrafish embryos in the E3 solution at 24 hpf. The pigmentation of zebrafish larvae was photographed and measured in dorsal and lateral views at 72 hpf using an ATTO CS analyzer (ATTO, Tokyo, Japan). […] Pigmentation of zebrafish larvae was imaged using the SMZ745T microscope (Nikon, Tokyo, Japan), and the pigmented areas were measured in dorsal and lateral views at 72 hpf using an ATTO CS analyzer (ATTO, Tokyo, Japan).

Where two headings read alike, the source gives them in different places.

Consider `Oc1ccc(-c2nc3cc4c(cc3s2)OCO4)cc1` [Compound 5, 4-([1,3]Dioxolo[4′,5′:4,5]benzo[1,2-d]thiazol-6-yl)phenol], for which the Ki on mushroom tyrosinase [1] (Dixon plot, read-out: inhibition constant (Ki)) came out at 46 µM. For the same molecule, the mechanism of inhibition entry on mushroom tyrosinase [1] (Lineweaver–Burk plot) is “competitive inhibitors”. The cellular tyrosinase activity result in data set [2] is listed as “significantly decreased the cellular tyrosinase activity”. In the data set with HaCaT cells, the “cytotoxicity (cell viability)” value is “None of the compounds revealed significant cytotoxicity up to 20 μM”. Besides, on B16F10 cell tyrosinase, the “number of cells strongly stained with melanin (in situ tyrosinase)” value was “evidently reduced the number of cells strongly stained with melanin”. The melanin content entry with B16F10 cells (1, 2, and 5 μM, IBMX 200 μM plus α-MSH 1 μM, 72 h) is “significantly reduced the stimulator-induced melanin contents”. Also, the “melanin production inhibition compared with kojic acid” value in the data set with B16F10 cells (same concentration (5 μM)) is on record as “inhibited melanin production more potently than kojic acid”. Besides, the figures for the inhibition at 50 µM at mushroom tyrosinase [3] (substrate L-dopa) and on mushroom tyrosinase [3] (substrate L-tyrosine) were 63.3% and 61.4%, respectively.
In the case of `O=c1cc(CO)occ1O` [kojic acid], the “depigmentation effect on zebrafish larvae” value in the data set with zebrafish embryos is recorded as “significant depigmentation effect”.

One may read the Ki as the equilibrium dissociation constant of an inhibitor or competing ligand from its target. Usually inhibition stands for the relative decrease from the control value, in per cent.
